Results from patent US20110245105A1, “Methods and Kits for Direct Detection and Susceptibility Profiling of Beta-Lactam Resistant Bacteria” (YISSUM RESEARCH DEVELOPMENT COMPANY OF THE HEBREW …, priority 2008, published 2011).

How the values were obtained:
Type in all cases: cell-based
E. faecalis = experiment: ART strip test on urine sample pellets; settings: 4 samples (r27)
Procedure: (§1) Filter paper (Whatman no. 3) strips impregnated with 50 mM potassium iodide and 10 mM iodine in 0.75% aqueous starch solution were divided into 6 test areas. Appropriate antibiotic substrates were prepared at a final concentration of 20 mg/mL. Each test area was impregnated with 30 μL of the appropriate solution. The strips were then dried in a lyophilizer and stored with a desiccant at 4° C.
(§2) One mL urine samples were spun 2 minutes at 3000 RPM in room temperature. Supernatants were removed and aliquots of the resulting pellets were streaked on standard slides.
(§3) The product of the enzymatic degradation of a beta-lactam antibiotic removes the iodine from the ART strip and causes local decolorization in that strip. Typically, a detection kit consists of two slides, as illustrated in FIG. 2. The bottom slide is streaked with the sample to be tested. The top slide (lid) carries the ART strip which is activated when each test area on the strip receives 25 μL of the activator solution consisting of 40 mg gelatin in 100 mL phosphate buffer pH 6.5. The test starts when the top slide carrying the freshly activated ART strip contacts the bottom slide carrying the sample. It may be carried out at ambient temperatures but will be accelerated by warming-up to 41° C. […] Result is confirmed if no decolorization took place in the absence of the bacteria (the background of that test area) or in the absence of the antibiotic (as in Test Area 2 in FIG. 1).
(§4) One mL urine sample pellets were collected as described in Example 1 and each streaked on a slide. The strip of the invention (termed ART for Antibiotics Resistance Test) was used to test for beta-lactamase and its ability to degrade Ceftazidime [Caz], Ceftriaxone [Cro], Cefuroxime [Cxm] and Ampicillin [Amp]. The strip, containing iodine and starch and divided to areas containing each of the abovementioned antibiotics, and attached to a plain slide, was activated as shown above, and placed on the streaked slide. After 5-15 minutes at 33° C.-38° C. the slide was scanned and recorded.

K. oxytoca [1] = experiment: ART strip test on urine sample pellets
Procedure: as §1, §2, §3, §4

Staphylococcus sp. = experiment: ART strip test on urine sample pellets
Procedure: as §1, §2, §3, §4

K. pneumoniae [2] = experiment: ART strip test on urine sample pellets
Procedure: as §1, §2, §3, §4

Prot. mirabilis [3] = experiment: ART strip test on urine sample pellets
Procedure: as §1, §2, §3, §4

Str. agalactiae = experiment: ART strip test on urine sample pellets; settings: 3 samples (r34)
Procedure: as §1, §2, §3, §4

Citr. koseri = experiment: ART strip test on urine sample pellets; settings: 2 samples (r25)
Procedure: as §1, §2, §3, §4

Acinetobacter sp. = experiment: ART strip test on urine sample pellets; settings: 1 sample (r29)
Procedure: as §1, §2, §3, §4

Morg. morganii = experiment: ART strip test on urine sample pellets
Procedure: as §1, §2, §3, §4

E. coli [4] = experiment: ART strip (Antibiotics Resistance Test), iodometric detection of beta-lactam hydrolysis by un-cultured urine sample pellets
Procedure: as §1, §2, §3, §4

K. pneumoniae [5] = experiment: modular antibiotic resistance detection kit on urine sample pellets
Procedure: (§5) A modular antibiotic resistance detection kit offers more flexibility in testing different resistance profiles. In the modular detection kit exemplified here, the ART strip is replaced by filter paper segments glued to a slide, each segment impregnated with a single antibiotic.
(§6) Specifically, pathogen samples were tested using filter papers impregnated with the following beta-lactam antibiotics: ampicillin [Amp], augmentin (a combination of amoxicillin and clavulanic acid) [AMC], clavulanic acid (Reduced Resistance test) [RR], ceftazidime [Caz] and either imipenem or meropenem [CPM]. The impregnation details of the fragments were as in the previous Examples.
(§7) Filter paper (Whatman no. 3] strips impregnated with Assay Reagent solution were used as “indicator strips”. An indicator strip was attached to the plain top slide as shown in FIG. 2. Aliquots of the pellets of the urine samples tested were placed on each of the segments. The test was started by placing the activated indicator-strip-slide, on the modular antibiotic slide. The scan results obtained after 5-10 min at 38° C. are illustrated schematically in FIG. 2 where all segments, except for the negative (no antibiotic) control, show decolorization indicating resistance to each antibiotic in that array.
(§8) Samples resistant to ceftazidime but affected by clavulanic acid were assumed to contain extended spectrum beta lactamases (ESBLs). The ‘Confirmed’ detections column summarizes the number of CLP-validated results out of the total findings recorded.

E. coli [6] = experiment: as above
Procedure: as §5, §6, §7, §8

Citrobacter freundii = experiment: as above; settings: profile r23, ESBL Pos; note: key: R = resistant; S = sensitive
Procedure: as §5, §6, §7, §8

Proteus mirabilis = experiment: as above
Procedure: as §5, §6, §7, §8

Prot. mirabilis [7] = experiment: conventional lab procedures [CLP], resistance of bacterial isolates; settings: 1 sample (r18)
Source text: (§9) The same specimens were examined using conventional lab procedures [CLP] that determined the identity of the bacterial isolates and their resistance to the above beta-lactams.

K. oxytoca [8] = experiment: as above; settings: 1 sample (r15)
Source text: as §9

K. pneumoniae [9] = experiment: as above; settings: 1 sample (r12)
Source text: as §9

[10] = 28 samples (r6), 5-15 minutes at 33° C.-38° C.

CC1(C)S[C@@H]2[C@H](NC(=O)[C@H](N)c3ccccc3)C(=O)N2[C@H]1C(=O)O [Amp, Ampicillin]
resistance profile predicted by ART (E. faecalis): S | resistance profile predicted by ART (K. oxytoca [1]; 1 sample (r15)): R | resistance profile predicted by ART (K. oxytoca [1]; 3 samples (r14)): R | resistance profile predicted by ART (Staphylococcus sp.; 1 sample (r31)): R | resistance profile predicted by ART (Staphylococcus sp.; 1 sample (r32)): S | resistance profile predicted by ART (K. pneumoniae [2]; 1 sample (r12)): R | resistance profile predicted by ART (K. pneumoniae [2]; 8 samples (r11)): R | resistance profile predicted by ART (K. pneumoniae [2]; 11 samples (r10), MDR): R | resistance profile predicted by ART (Prot. mirabilis [3]; 1 sample (r18)): R | resistance profile predicted by ART (Prot. mirabilis [3]; 1 sample (r19)): R | resistance profile predicted by ART (Prot. mirabilis [3]; 1 sample (r20)): R | resistance profile predicted by ART (Prot. mirabilis [3]; 6 samples (r17)): R | resistance profile predicted by ART (Str. agalactiae): S | resistance profile predicted by ART (Citr. koseri): R | resistance profile predicted by ART (Acinetobacter sp.): S | resistance profile predicted by ART (Morg. morganii; 1 sample (r22)): R | resistance profile predicted by ART (Morg. morganii; 1 sample (r23)): R | resistance profile predicted by ART (E. coli [4]; 3 samples (r8), MDR): R | resistance profile predicted by ART (E. coli [4]; 12 samples (r7)): S | resistance profile predicted by ART (E. coli [4]; [10]): R | resistance found with modular kit (K. pneumoniae [5]; K. pneumoniae (5 samples), profile r17, ESBL Pos): R | resistance found with modular kit (K. pneumoniae [5]; K. pneumoniae, profile r18, ESBL Pos): R | resistance found with modular kit (K. pneumoniae [5]; K. pneumoniae, profile r19): R | resistance found with modular kit (K. pneumoniae [5]; K. pneumoniae, profile r20, ESBL Pos): R | resistance found with modular kit (K. pneumoniae [5]; K. pneumoniae, profile r21, ESBL Neg): R | resistance found with modular kit (E. coli [6]; E. coli (16 samples), profile r6, ESBL Neg, 5-10 min at 38° C.): S | resistance found with modular kit (E. coli [6]; E. coli, profile r7): S | resistance found with modular kit (E. coli [6]; E. coli, profile r8): R | resistance found with modular kit (E. coli [6]; E. coli, profile r9, ESBL Neg): R | resistance found with modular kit (E. coli [6]; E. coli, profile r10, ESBL Neg): R | resistance found with modular kit (E. coli [6]; E. coli, profile r11, ESBL Neg): R | resistance found with modular kit (E. coli [6]; E. coli, profile r12, ESBL Neg): R | resistance found with modular kit (E. coli [6]; E. coli, profile r13): R | resistance found with modular kit (E. coli [6]; E. coli, profile r14, ESBL Pos): R | resistance found with modular kit (E. coli [6]; E. coli, profile r15, ESBL Pos): R | resistance found with modular kit (Citrobacter freundii): R | resistance found with modular kit (Proteus mirabilis; Proteus mirabilis (3 samples), profile r25, ESBL Pos): R | resistance found with modular kit (Proteus mirabilis; Proteus mirabilis, profile r26, ESBL Pos): R | resistance found with modular kit (Proteus mirabilis; Proteus mirabilis, profile r27, ESBL Neg): R | CLP result differing from ART (in brackets) (Prot. mirabilis [7]): S

CO/N=C(\C(=O)N[C@@H]1C(=O)N2C(C(=O)O)=C(CSc3nc(=O)c(=O)[nH]n3C)CS[C@H]12)c1csc(N)n1 [Cro, Ceftriaxone]
resistance profile predicted by ART (E. faecalis): S[nd] | resistance profile predicted by ART (K. oxytoca [1]; 1 sample (r15)): S | resistance profile predicted by ART (K. oxytoca [1]; 3 samples (r14)): S | resistance profile predicted by ART (Staphylococcus sp.; 1 sample (r31)): S | resistance profile predicted by ART (Staphylococcus sp.; 1 sample (r32)): S | resistance profile predicted by ART (K. pneumoniae [2]; 1 sample (r12)): S | resistance profile predicted by ART (K. pneumoniae [2]; 8 samples (r11)): S | resistance profile predicted by ART (K. pneumoniae [2]; 11 samples (r10), MDR): R | resistance profile predicted by ART (Prot. mirabilis [3]; 1 sample (r18)): S | resistance profile predicted by ART (Prot. mirabilis [3]; 1 sample (r19)): R | resistance profile predicted by ART (Prot. mirabilis [3]; 1 sample (r20)): S | resistance profile predicted by ART (Prot. mirabilis [3]; 6 samples (r17)): S | resistance profile predicted by ART (Str. agalactiae): S[nd] | resistance profile predicted by ART (Citr. koseri): S | resistance profile predicted by ART (Acinetobacter sp.): S | resistance profile predicted by ART (Morg. morganii; 1 sample (r22)): S | resistance profile predicted by ART (Morg. morganii; 1 sample (r23)): R | resistance profile predicted by ART (E. coli [4]; 3 samples (r8), MDR): R | resistance profile predicted by ART (E. coli [4]; 12 samples (r7)): S | resistance profile predicted by ART (E. coli [4]; [10]): S | CLP result differing from ART (in brackets) (K. oxytoca [8]): R | CLP result differing from ART (in brackets) (K. pneumoniae [9]): R
